The source of these data is patent publication US20120184517A1, “TREATMENT OF DISEASES WITH ALTERED SMOOTH MUSCLE CONTRACTILITY” (priority 2009, published 2012).

“Also recorded” adds a separate entry of the source.

Data set [1] has as its system membrane potential of tracheal smooth muscle cells. Kind of data set: Membrane potential measurement in tracheal smooth muscle cells. In kind it is cell-based, mice. The procedure: (§1) In this experiment, murine tracheal smooth muscle cells were acutely isolated and whole cell patch clamped as previously described (Zakharov, S. et al., (2005) J Biol Chem 280, 30882-30887).
The membrane potential was recorded using perforated patch clamp technique.

The target of data set [2] is BKCa channel (Homo sapiens, UniProt Q12791). Nature of the data set: Outside-out single channel recordings of cultured human VSMC. In kind it is cell-based. Further details: Human vascular smooth muscle cells (VSMC) grown in vitro express BKCa channels; endogenous in cells; host or cells: cultured human vascular smooth muscle cells (outside-out patches).
For data set [3], the system named is OVA-challenged animals. The settings on record: in vivo; cited from earlier work.
Data set [4] has as its target mitogen- and stress-activated protein kinase 1 (MSK-1) (Homo sapiens, UniProt O75582). The settings on record: 20 μM; cited from earlier work.
The test system of data set [5] is WT tracheal rings. Kind of data set: Isoproterenol-induced relaxation of WT tracheal rings on a myograph. Format: cell-based, murine. As to conditions: rottlerin compared to PBS. The procedure:
(n=4 each). Asterisk (*) indicates P<0.05 versus vehicle (DMSO). […] Cumulative dose-response curves of WT tracheal rings to isoproterenol in the absence and presence of 100 nM iberiotoxin (IbTX), a specific BK channel inhibitor. Values in graphs are means±standard deviation.
as §1
To dissect which (or both) β-AR pathways are responsible for the effects, tracheal rings were pre-incubated with either β1-AR antagonist (CGP 20712A; 100 nM) or a β2-AR antagonist (ICI 118551; 100 nM) or vehicle (DMSO). […] To confirm that the isoproterenol-induced relaxation was dependent upon BK channel-induced hyperpolarization, IbTX, a specific inhibitor of the BK channel, was used.

Data set [6] deals with 3-phosphoinositide-dependent protein kinase-1 (PDK-1) (Homo sapiens, UniProt O15530). As to conditions: 20 μM; cited from earlier work.
Data set [7] addresses PKCδ (Homo sapiens, UniProt Q05655). As to conditions: rottlerin 20 μM, 0.1 mM ATP, phosphatidylserine; cited from earlier work.
In data set [8] the test system is other PKC isozymes. The settings on record: cited from earlier work.
For data set [9], the system named is Jurkat T cells and purified human CD4+ T cells. The settings on record: cited from earlier work.
Data set [10] deals with Akt (Homo sapiens, UniProt P31749). As to conditions: 20 μM; cited from earlier work.
For data set [11], the target named is glycogen synthase kinase 3β (Homo sapiens, UniProt P49841). The settings on record: 20 μM; cited from earlier work.
Data set [12] has as its system rats. As to conditions: 10-20 mg/kg/day×6 days; cited from earlier work.
The target in data set [13] is T1, BKCa channel α (mSlo) and β1 subunits (Mus musculus, UniProt Q08460).
T1 construct: expressed in transfected cells; host or cells: HEK293
Nature of the data set: Whole cell recording of HEK cells co-expressing α and β1 subunits. Format: cell-based. The settings on record: HEK293 cells expressing both mSlo and β1 subunit. The procedure:
Current was monitored with a ramp protocol; holding potential −60 mV, with ramp from −80 mV to +150 mV over 500 ms. Extracellular application of NS-1619 (10 μM) increased current as previously described (Olesen, et al., Selective activation of Ca^2+-dependent K^+ channels by novel benzimidazolone. Eur. J. Pharmacol., 1994. 251(1):53-9). […] Analysis was performed using tail analysis with normalization as previously described (Xia, et al., Multiple regulatory sites in large-conductance calcium-activated potassium channels. Nature, 2002. 418(6900):880-4). […] Identification of the BKCa channel was determined by conductance and inhibition by iberiotoxin and TEA. […] Murine femoral arterial rings were isolated and placed in a wire myograph. […] The figures shown are representative of 4 similar experiments. Error bars are standard error of the mean (SEM). Asterisk (*) indicates p<0.001.

For data set [14], the system named is 3T3-L1 adipocytes. As to conditions: read-out: IC50 of insulin-induced glucose uptake; cited from earlier work.
In data set [15] the target is PKCα (Homo sapiens, UniProt P17252). As to conditions: rottlerin 20 μM, 0.1 mM ATP, phosphatidylserine; cited from earlier work.
The target in data set [16] is T2, BK currents in tracheal smooth muscle (Mus musculus, UniProt Q08460).
T2 construct: murine tracheal smooth muscle cells were acutely isolated and whole cell patch clamped; endogenous in cells; host or cells: acutely isolated murine tracheal smooth muscle cells
Kind of data set: Whole cell patch clamp of acutely isolated tracheal smooth muscle cells. In kind it is cell-based, murine. Further details: unit of the concentration uncertain. As to conditions: rottlerin (1 (unit uncertain)), FIG. 11A.
From the text: as §1
Murine tracheal smooth muscle cells were isolated using the following protocol. Trachea were removed, cut longitudinally, the epithelium removed (brushing with sterile cotton bud) and the cartilage removed by cutting. The isolated trachea were dissected in culture medium and cut into several pieces (1-2 mm^2). After addition of 0.5 mg/ml papain (Roche, Nutley, N.J.) and 1 mg/ml dithiothreitol, the cells were dissociated at 37° C. for 20 minutes, gently shaking, followed by the addition of 0.1 mg/ml liberase enzyme 2 (Roche, Nutley, N.J.) for 30 minutes at 37° C. (5% CO2). The suspension was then pipetted gently several times to disburse cells, the cell suspension strained via a nylon cell strainer, and the suspension was gently triturated to disburse single cells. The cell suspension was then centrifuged at 700×g for 5 minutes and the pellet resuspended in 500 μl Krebs solution. The cells were plated onto laminin-coated tissue culture dishes. BK currents were recorded using whole-cell and outside-out macropatches.
(In patch-clamp work, channel activity is measured electrically.)

Data set [17] deals with tracheal rings. Kind of data set: Isoproterenol-induced relaxation of tracheal rings from PBS- and OVA-sensitized animals. In kind it is cell-based, murine. Further details: isoproterenol-induced relaxation: dose or concentration left out as unconfirmed. How it is done: The isoproterenol-induced relaxation of tracheal rings from OVA-sensitized asthmatic animals was also tested. After induction of asthma, tracheal rings were removed and mounted on the myograph. […] At the conclusion of the experiment, each tracheal ring was exposed to methacholine to ensure viability of the ring and equivalent constriction.
After induction of asthma, tracheal rings were removed and mounted on the myograph. […] The ISO-relaxation curve was shifted downward and to the right, with the maximal relaxation response reduced to only ˜25% from more than 60%.

Sequence of BKCa channel (Q12791 whole entry): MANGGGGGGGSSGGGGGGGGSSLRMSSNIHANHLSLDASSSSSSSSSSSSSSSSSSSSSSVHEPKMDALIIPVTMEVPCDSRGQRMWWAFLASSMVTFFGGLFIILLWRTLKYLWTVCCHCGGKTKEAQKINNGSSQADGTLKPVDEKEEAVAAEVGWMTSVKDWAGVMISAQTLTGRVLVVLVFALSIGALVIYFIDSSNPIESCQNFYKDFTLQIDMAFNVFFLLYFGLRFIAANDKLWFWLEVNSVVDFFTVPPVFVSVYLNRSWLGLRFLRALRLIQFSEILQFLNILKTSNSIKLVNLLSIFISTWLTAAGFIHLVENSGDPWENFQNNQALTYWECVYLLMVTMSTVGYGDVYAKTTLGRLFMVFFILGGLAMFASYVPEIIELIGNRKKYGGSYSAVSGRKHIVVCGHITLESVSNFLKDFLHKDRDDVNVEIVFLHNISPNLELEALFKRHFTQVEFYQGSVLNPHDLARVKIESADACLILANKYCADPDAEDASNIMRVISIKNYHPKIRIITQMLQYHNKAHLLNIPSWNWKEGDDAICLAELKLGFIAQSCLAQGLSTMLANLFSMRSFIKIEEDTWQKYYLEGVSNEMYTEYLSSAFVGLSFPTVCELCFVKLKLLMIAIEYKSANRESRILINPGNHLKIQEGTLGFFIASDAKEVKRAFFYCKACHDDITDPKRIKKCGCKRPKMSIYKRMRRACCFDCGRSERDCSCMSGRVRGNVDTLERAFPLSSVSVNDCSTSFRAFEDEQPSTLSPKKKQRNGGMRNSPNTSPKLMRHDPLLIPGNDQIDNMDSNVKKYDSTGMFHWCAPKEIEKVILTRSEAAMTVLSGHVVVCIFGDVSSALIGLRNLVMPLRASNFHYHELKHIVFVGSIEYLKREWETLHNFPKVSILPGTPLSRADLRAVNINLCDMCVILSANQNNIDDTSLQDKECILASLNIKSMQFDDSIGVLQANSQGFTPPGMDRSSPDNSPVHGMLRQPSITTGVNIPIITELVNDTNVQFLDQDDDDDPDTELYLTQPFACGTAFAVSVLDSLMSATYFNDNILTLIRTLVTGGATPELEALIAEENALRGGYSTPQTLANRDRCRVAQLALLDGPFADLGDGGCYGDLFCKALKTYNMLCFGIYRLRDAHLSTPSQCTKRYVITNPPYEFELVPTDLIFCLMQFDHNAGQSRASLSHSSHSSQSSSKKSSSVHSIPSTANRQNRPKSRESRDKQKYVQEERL
Sequence of mitogen- and stress-activated protein kinase 1 (MSK-1) (O75582 whole entry, species assumed): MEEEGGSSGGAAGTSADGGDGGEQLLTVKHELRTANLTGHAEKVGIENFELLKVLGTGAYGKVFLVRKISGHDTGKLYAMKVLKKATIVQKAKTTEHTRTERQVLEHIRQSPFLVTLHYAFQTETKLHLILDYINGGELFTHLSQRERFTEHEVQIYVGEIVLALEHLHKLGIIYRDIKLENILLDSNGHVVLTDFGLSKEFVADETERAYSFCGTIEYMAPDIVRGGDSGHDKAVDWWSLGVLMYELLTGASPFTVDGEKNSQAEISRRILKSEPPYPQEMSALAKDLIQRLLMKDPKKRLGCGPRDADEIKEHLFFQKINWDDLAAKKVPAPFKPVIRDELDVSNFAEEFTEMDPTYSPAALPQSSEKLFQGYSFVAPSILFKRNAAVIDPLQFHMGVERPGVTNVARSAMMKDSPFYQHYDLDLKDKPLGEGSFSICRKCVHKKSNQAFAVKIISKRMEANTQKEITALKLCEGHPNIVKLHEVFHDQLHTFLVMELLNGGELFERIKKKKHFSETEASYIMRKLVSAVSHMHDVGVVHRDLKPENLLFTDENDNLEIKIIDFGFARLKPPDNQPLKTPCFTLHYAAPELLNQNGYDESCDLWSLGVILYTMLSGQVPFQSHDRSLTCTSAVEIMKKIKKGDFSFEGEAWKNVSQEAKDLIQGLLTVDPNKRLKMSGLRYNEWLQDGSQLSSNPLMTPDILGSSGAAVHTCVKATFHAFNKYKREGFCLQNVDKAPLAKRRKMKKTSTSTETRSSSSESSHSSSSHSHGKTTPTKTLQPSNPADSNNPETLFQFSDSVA
Sequence of 3-phosphoinositide-dependent protein kinase-1 (PDK-1) (O15530 whole entry, species assumed): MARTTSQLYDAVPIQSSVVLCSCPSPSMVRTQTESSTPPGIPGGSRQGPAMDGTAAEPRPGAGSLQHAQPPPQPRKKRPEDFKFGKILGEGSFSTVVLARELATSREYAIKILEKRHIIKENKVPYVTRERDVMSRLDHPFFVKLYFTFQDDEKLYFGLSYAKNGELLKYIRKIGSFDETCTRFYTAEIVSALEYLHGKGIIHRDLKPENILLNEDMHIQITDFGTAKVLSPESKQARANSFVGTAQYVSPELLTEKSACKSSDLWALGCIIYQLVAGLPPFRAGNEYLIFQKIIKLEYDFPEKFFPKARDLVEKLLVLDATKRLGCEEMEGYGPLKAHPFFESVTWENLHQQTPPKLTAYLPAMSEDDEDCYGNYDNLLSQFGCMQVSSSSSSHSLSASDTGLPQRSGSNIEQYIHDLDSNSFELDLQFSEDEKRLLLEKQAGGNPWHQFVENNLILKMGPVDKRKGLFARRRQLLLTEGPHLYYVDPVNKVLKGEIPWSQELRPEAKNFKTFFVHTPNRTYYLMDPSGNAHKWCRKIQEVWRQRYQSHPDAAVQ
Sequence of PKCδ (Q05655 whole entry): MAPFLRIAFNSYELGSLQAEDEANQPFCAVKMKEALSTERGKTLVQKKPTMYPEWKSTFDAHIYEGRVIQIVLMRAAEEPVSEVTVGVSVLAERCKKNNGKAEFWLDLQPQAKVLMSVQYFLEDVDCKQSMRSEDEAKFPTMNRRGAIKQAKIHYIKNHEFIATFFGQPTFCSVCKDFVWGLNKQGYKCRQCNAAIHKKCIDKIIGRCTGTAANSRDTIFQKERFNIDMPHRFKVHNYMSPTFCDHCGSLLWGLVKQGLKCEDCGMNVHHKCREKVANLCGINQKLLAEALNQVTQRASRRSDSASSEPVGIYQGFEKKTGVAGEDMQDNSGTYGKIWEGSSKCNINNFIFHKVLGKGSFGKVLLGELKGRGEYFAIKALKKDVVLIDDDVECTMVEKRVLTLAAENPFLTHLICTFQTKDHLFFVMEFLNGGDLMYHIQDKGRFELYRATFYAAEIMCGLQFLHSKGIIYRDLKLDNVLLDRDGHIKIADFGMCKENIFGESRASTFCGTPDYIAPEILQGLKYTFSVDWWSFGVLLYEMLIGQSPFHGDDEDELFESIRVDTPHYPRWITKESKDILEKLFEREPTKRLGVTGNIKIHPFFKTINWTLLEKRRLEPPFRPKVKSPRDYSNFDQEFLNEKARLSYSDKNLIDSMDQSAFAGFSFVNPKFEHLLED
Sequence of Akt (P31749 whole entry): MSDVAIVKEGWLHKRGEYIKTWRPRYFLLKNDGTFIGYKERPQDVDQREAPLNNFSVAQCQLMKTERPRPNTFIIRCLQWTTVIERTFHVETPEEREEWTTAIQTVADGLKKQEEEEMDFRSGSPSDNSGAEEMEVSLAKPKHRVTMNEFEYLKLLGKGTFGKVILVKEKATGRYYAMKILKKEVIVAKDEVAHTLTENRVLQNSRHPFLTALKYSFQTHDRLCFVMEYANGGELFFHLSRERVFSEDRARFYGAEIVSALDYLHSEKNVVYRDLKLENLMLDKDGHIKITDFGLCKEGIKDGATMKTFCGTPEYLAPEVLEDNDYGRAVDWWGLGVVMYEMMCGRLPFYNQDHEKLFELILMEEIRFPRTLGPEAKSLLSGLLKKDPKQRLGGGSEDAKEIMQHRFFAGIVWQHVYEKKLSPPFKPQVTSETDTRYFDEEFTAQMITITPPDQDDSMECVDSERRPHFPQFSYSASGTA
T1 sequence (Q08460 whole entry): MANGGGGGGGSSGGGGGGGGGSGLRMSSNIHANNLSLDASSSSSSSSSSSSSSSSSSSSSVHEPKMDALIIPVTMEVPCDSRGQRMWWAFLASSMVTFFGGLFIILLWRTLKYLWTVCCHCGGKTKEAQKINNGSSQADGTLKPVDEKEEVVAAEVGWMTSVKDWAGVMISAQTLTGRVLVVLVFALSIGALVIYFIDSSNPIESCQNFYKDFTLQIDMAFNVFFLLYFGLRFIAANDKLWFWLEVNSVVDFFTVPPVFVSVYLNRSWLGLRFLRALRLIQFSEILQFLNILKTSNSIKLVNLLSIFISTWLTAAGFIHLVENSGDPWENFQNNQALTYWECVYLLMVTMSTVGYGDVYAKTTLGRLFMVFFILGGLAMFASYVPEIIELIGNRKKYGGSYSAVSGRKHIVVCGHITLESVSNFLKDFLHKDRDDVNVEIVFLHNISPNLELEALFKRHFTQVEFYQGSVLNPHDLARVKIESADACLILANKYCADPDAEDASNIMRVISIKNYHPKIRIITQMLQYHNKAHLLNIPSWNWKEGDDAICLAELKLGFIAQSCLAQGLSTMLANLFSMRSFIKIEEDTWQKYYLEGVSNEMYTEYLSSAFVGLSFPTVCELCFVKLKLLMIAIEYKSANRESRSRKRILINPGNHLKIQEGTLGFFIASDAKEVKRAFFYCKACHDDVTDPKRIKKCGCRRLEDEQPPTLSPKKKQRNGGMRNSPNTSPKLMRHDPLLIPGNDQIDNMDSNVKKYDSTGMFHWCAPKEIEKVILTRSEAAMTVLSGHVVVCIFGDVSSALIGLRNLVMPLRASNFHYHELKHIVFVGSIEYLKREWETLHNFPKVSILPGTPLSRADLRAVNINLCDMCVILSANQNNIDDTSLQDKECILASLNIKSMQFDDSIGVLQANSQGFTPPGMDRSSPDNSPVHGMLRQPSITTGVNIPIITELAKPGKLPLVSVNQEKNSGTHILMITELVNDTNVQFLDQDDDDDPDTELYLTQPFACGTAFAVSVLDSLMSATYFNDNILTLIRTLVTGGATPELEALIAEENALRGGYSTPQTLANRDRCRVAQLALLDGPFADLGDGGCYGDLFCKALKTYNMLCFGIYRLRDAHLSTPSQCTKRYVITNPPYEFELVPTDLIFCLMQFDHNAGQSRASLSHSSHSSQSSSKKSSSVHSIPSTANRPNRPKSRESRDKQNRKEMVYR

What is called inhibition is the change of the read-out against control, counted positive when it falls. In general, IC50 refers to the concentration that gives 50% inhibition. `CC(=O)c1c(O)c(C)c(O)c(Cc2c(O)c3c(c(C(=O)/C=C/c4ccccc4)c2O)OC(C)(C)C=C3)c1O` [rottlerin, 5,7-dihydroxy-2,2-dimethyl-6-(2,4,6-trihydroxy-3-methyl-5-acetylbenzyl)-8-cinnamoyl-I,2-chromene]: the membrane potential result in [1] (after rottlerin application (1 μM), FIGS. 11B and 11D) was “significant hyperpolarization”; in [1] (perforated patch clamp, rottlerin 2 μM, FIG. 15), “significant hyperpolarization”. Besides, in data set [2] (0.5 μM rottlerin, outside-out patches, cultured human VSMC), the channel open probability result is “significant increase”. The “Po and open dwell time” value in [2] (rottlerin 0.5 μM local perfusion, +60 mV) was “increasing Po and open dwell time; also recorded: significantly increased”. The “histamine in BAL fluid” value in data set [3] was “inhibits an increase of histamine”. The inhibition is reported as 62% in data set [4], 64% in data set [6], 73% in [10] and 87% in data set [11]. Besides, the ISO-induced relaxation result in data set [5] is listed as “enhanced the ISO-induced relaxation”. Moreover, the “effect on PKCδ activity” value in [7] is “virtually no effect”. For the same molecule, the values for the IC50 in data set [8] and in data set [14] were 30 to 100 µM and 10 µM, respectively. The “PMA-induced phosphorylation of Erk-1 and Erk-2” value in data set [9] is listed as “blocked”. In data set [12], the fertility rate result is on record as “reduce the fertility rate”. Also, the channel activation entry in data set [13] is reported as “activated the channel”. For the same molecule, the “effect on PKCα activity” value in data set [15] is listed as “virtually no effect”. In data set [16], the BK currents result was “significantly activated”. In addition, the “maximal relaxation response to isoproterenol” value in data set [17] (OVA-sensitized rings, acute rottlerin in the bath 2 minutes prior to ISO) is listed as ~45%. Moreover, in data set [17] (PBS-treated (control) animals), the isoproterenol-induced relaxation result is given as “enhanced the isoproterenol-induced relaxation”.
